These results are taken from paper PMC6348446 (Journal of Medicinal Chemistry, 2018).

A short description of data set [1]: CHI LogD determination (reverse-phase HPLC). It counts as physicochemical. Particulars: reversed-phase HPLC (ACE Excel 3 SuperC18 column), pH 7.4; read-out: CHI LogD (pH7.4). As to the method:
(§1) removed from both acceptor and donor compartments and mixed with acetonitrile (80 µL) containing an internal standard. The samples were centrifuged (10 min, 5 °C, 3270 g) to sediment precipitated protein and sealed prior to UPLC-MS/MS analysis using a Xevo TQ-S Micro (Waters Corp, USA). Pe was calculated as shown in the below equation: […]
(§2) CA(t) = peak area of compound present in acceptor well at time t = 18000 s Cequi = [CD(t) x VD + CA(t) x VA] / (VD + VA)
(§3) VA = acceptor well volume
(§4) CD(t) = peak area of compound present in donor well at time t = 18000 s Recovery of compound from donor and acceptor wells was calculated and data was only accepted when recovery exceeded 70%.
Using a fast gradient, reverse-phase HPLC method to determine the chromatographic hydrophobicity index (CHI) was determined as described by Camurri and Zaramella (ref. 3) and Valko et al. (ref. 4). Briefly, by plotting the retention time of a set of reference […]
compounds against known CHI values. The CHI value of test compounds was then calculated according to their retention time.
Test compounds were prepared as 0.25 mM solutions in 50:50 acetonitrile:water and analysed by reversed-phase HPLC-UV (wavelength 254 nm) using a ACE Excel 3 SuperC18, 3 µm, 50 x 2.1 mm column with a gradient of aqueous phase (10 mM ammonium acetate, pH 7.4) and mobile phase (acetonitrile).
Intrinsic clearance (Cli) experiments
Test compound (0.5 µM) was incubated with female CD1 mouse or human (mixed gender) liver microsomes (Xenotech LLCTM; 0.5 mg/mL 50mM potassium phosphate buffer, pH7.4) and the reaction initiated with addition of excess NADPH (8 mg/mL 50 mM potassium phosphate buffer, pH7.4). Immediately, at time zero, then at 3, 6, 9, 15 and 30 minutes an aliquot (50 µL) of the incubation mixture was removed and mixed with acetonitrile (100 µL) to stop the reaction. Internal standard was added to all samples, the samples centrifuged to sediment precipitated protein and the plates then sealed prior to […] analysis using […]
a Xevo TQ-S Micro (Waters corporation, USA).
XLfit (IDBS, UK) was used to calculate the exponential decay and consequently the rate constant (k) from the ratio of peak area of test compound to internal standard at each timepoint. The rate of intrinsic clearance (CLi) of each test compound was then calculated using the following calculation:
CLi(mL/min/g liver) = k x V x Microsomal protein yield
Where V (mL/mg protein) is the incubation volume/mg protein added and microsomal protein yield is taken as 52.5 mg protein/ g liver. Verapamil (0.5 µM) was used as a positive control to confirm acceptable assay performance.

Data set [2] can be described thus: Parallel Artificial Membrane Permeability Assay (PAMPA). It counts as in vitro ADME. As to the method:
Test compound (10 µM) was incubated in pre-warmed plasma at 37 ᵒC (that is buffered to pH 7.4 in ratio of 70:30 plasma to buffer). Immediately, at time zero, then at 30, 60, 120, and 180 min, a 50 µL aliquot of the incubation mixture was removed and mixed with 200 µL acetonitrile containing Donepezil as the internal standard (50 ng/ml) to stop the reaction. The samples were centrifuged to sediment the precipitated protein and the plates then sealed prior to UPLC-MS/MS analysis using a Xevo TQ-S Micro (Waters Corporation, USA).
XLfit (IDBS, UK) was used to calculate the exponential decay and consequently the rate constant (k) from the ratio of peak area of test compound to internal standard at each time point. The half-life was calculated for each test compound from the rate by using the […]
Parallel Artificial Membrane Permeability Assay (PAMPA)
PAMPA was performed using a 96-well pre-coated BD Gentest™ PAMPA plate (BD Biosciences, U.K.). Each well was divided into two chambers; donor and acceptor, separated by a lipid-oil-lipid tri-layer constructed in a porous filter. The effective permeability, Pe, of the compound was measured at pH 7.4. Stock solutions (5 mM) of the compound were prepared in DMSO. The compound was then further diluted to 10 µM in phosphate buffered […]
saline at pH 7.4. […] The compound […]
dissolved in phosphate buffered saline was then added to the donor side of the membrane and phosphate buffered saline without compound was added to the acceptor side. The PAMPA plate was left at room temperature for 5 h. After which time, an aliquot (100 µL) was then […]
as §1, §2, §3, §4
Using a fast gradient, reverse-phase HPLC method to determine the chromatographic hydrophobicity index (CHI) was determined as described by Camurri and Zaramella (ref. 3) and Valko et al. (ref. 4). Briefly, by plotting the retention time of a set of reference

The subject of another data set is EOL-1 and A-204 cells. Kind of data set: Cell viability/proliferation, ranges stated over EOL-1 and A-204. It counts as cell-based. Particulars: Homo sapiens; EOL-1 and A-204, text; read-out: EC50 (cell viability), range. As to the method: (§5) A-204 cells (1 × 10^3) were seeded per well of 384-well plates. After overnight incubation, compounds were added to the cells at logarithmic dose series using the HP digital dispenser D300 (Tecan), normalizing for added DMSO. 1 day and 8 days after seeding cellular ATP content was measured using CellTiterGlo (Promega). Measurements after 8 days were divided by the measurement after 1 day (i.e., the T0 plate) to derive fold proliferation. Data were analyzed with GraphPad Prism software to obtain EC50 values.

The next data set concerns EOL-1 cells. The data set is described as follows: Cell viability/proliferation (cellular ATP, CellTiterGlo) in EOL-1. To be noted: Homo sapiens, EOL1; EOL-1, text; read-out: EC50 (cytotoxicity, cell viability). In kind it is cell-based.
The subject of the next data set is A-204 cells. The data set is described as follows: Cell viability/proliferation (cellular ATP, CellTiterGlo) in A-204. In kind it is cell-based. To be noted: Homo sapiens, A204; A-204 (printed A-402); read-out: EC50 (cytotoxicity, cell viability). As for the experimental part:
as §5

In the case of `COc1cc(-c2cn(C)c(=O)c3cnccc23)cc(OC)c1CN1CCN(CCOCCOc2cc(-c3scnc3C)ccc2CNC(=O)[C@@H]2C[C@@H](O)CN2C(=O)[C@@H](NC(=O)C2(F)CC2)C(C)(C)C)CC1` [Compound 46, (2S,4R)-N-(2-(2-(2-(4-(2,6-Dimethoxy-4-(2-methyl-1-oxo-1,2-dihydro-2,7-naphthyridin-4-yl)benzyl)piperazin-1-yl)ethoxy)ethoxy)-4-(4-methylthiazol-5-yl)benzyl)-1-((S)-2-(1-fluorocyclopropane-1-carboxamido)-3,3-dimethylbutanoyl)-4-hydroxypyrrolidine-2-carboxamide], the chromatographic logD in data set [1] is 2. The recovery at 5 h, 10 µM in data set [2] (PAMPA, pH 7.4) stood at 88%. Besides, the Papp at 5 h, 10 µM in data set [2] (PAMPA, pH 7.4, 5 h, read-out: PAMPA pH 7.4 Pe) worked out at 0.002 ×10⁻⁶ cm/s. Further, the “PAMPA pH 7.4 HIGH/MED/LOW” value in data set [2] (pH 7.4, permeability class) was “LOW and low cell permeability”.
For `COc1cc(-c2cn(C)c(=O)c3cnccc23)c(OC)cc1CN(C)C` [Compound 1b], the EC50 in the data set on EOL-1 and A-204 cells lay in the range of 370 to 3550 nM.
With `COc1cc(-c2cn(C)c(=O)c3cnccc23)cc(OC)c1CN(C)C` [Compound 1a], the EC50 with EOL-1 and A-204 cells is 90 to 340 nM.
For the compound `COc1cc(-c2cn(C)c(=O)c3cnccc23)cc(OC)c1CN(C)CC(=O)NCCOCCOCCNc1cccc2c1C(=O)N(C1CCC(=O)NC1=O)C2=O` (centres unmarked) [Compound 21, reference compound], the concentration for a half-maximal effect (EC50) turned out to be 5 nM in the data set with EOL-1 cells and 90 nM in the data set on A-204 cells.
